Measurements: US20100249408A1, “USE OF NOVEL COMPOUND HAVING AFFINITY FOR AMYLOID, AND PROCESS FOR PRODUCTION OF THE SAME” (NIHON MEDI-PHYSICS CO., LTD., priority 2007, published 2010)
pIC50: −log10 of the molar value. Values belong to the compound of their own block, whether it stands above or below them.

Columns and labels:
[1] = molecular target: T1, amyloid (aggregated Aβ1-40) (Homo sapiens, UniProt P05067); experiment: Measurement of amyloid affinity: in vitro binding test, inhibition of [125I]3′-I-BTA-0 binding
T1 construct: Aβ1-40 (Peptide Institute) was dissolved in phosphate buffer (pH 7.4); purchased Peptide Institute
Protocol: Affinity of the present compounds with amyloid was examined by the following in vitro binding tests.
(1) Aβ1-40 (Peptide Institute) was dissolved in phosphate buffer (pH 7.4) and shaken at 37° C. for 62-72 hours, to obtain a suspension of aggregated Aβ (concentration: 1 mg/mL equivalent, hereinafter referred to as amyloid suspension in these Examples).
(3) According to the method described in a literature (Wang, Y., et al., J. Labeled Compounds Radiopharmaceut. 44, 5239 (2001)), [^125I]2-(3′-iodo-4′-aminophenyl)benzothiazole (hereinafter referred to as [^125I]3′-I-BTA-0) was prepared from a labeling precursor 2-(4′-aminophenyl)benzothiazole, and dissolved in ethanol. [^125I]sodium iodide of 12-71 MBq (10-30 μL in volume) was used for the production, to obtain [^125I]3′-I-BTA-0 of 1-22 MBq immediately after the synthesis.
(5) Samples in which [^125I]3′-I-BTA-0, each compound for evaluation and amyloid were dissolved in a 0.1% bovine serum albumin-containing phosphate buffer (pH 7.4) at final concentrations shown in Table 2 were prepared. The resulting samples were placed in each well (about 0.3 mL in volume) of a 96-well microplate.
(6) The microplate filled with the sample solutions was shaken at a given rate (400 rpm) at 22° C. for 3 hours. Then, each sample solution was filtered through a glass fiber filter (trade name: Mulutiscreen™-FC, manufactured by Millipore), to separate the [^125I3′-I-BTA-0 attached to amyloid from the [^125I]3′-I-BTA-0 free from amyloid.
(7) The glass fiber filter used for the filtration of each sample solution was washed with a 0.1% bovine serum albumin-containing phosphate buffer (pH 7.4) (0.5 mL×5), and radioactivity of the glass fiber filter was measured with an autowell gamma system (manufactured by Aloka, Type: ARC-301B).
(8) Separately, a solution containing 15 μmol/L of 6-Me-BTA-2, 400 pmol/L of [^125I]3′-I-BTA-0 and 1 μmol/L of Aβ1-40 in a 0.1% bovine serum albumin-containing phosphate buffer (pH 7.4) was prepared and subjected to the same procedures as described above in (6) and (7) to measure a radioactivity level. The measured radioactivity level was defined as the background radioactivity level, and used in the calculation of the inhibition ratio (hereinafter referred to as BG).
(9) Using the radioactivity levels measured above in (7) and (8), the inhibition ratio was determined by the following formula (1).
A graph in which values converted by probit transformation from the obtained inhibition ratios were plotted relative to logarithms of concentrations of compounds for evaluation was prepared to obtain an approximate straight line by the least square method. Using the line, the concentration of each compound for evaluation was determined, at which the radioactivity level is half of the level of the sample free from each compound for evaluation, and was defined as a 50% inhibition concentration of each compound (hereinafter referred to as IC50% value). Using the value as an indicator, affinity of each compound for evaluation with amyloid (aggregated Aβ1-40) was evaluated.

[2] = tested on: Salmonella typhimurium TA98; experiment: Reverse mutation test (Ames test), TA98; type: cell-based; details: maximum 5000 μg/plate
Protocol: (§1) In order to examine gene mutagenicity of Compounds 1, 2 and 4, reverse mutation test using Salmonella typhimurium TA98 and TA100 (hereinafter referred to as Ames test) was conducted.
(§2) The test was conducted without addition of S9mix and with addition of S9mix. Dimethylsulfoxide was used as a negative control. A positive control was 2-(2-furyl)-3-(5-nitro-2-furyl)acrylamide in case S9mix was not added, and 2-aminoanthracene in case S9 mix was added.
(§3) The amount of each sample to be added to the test plate was 7 dosages (geometric ratio 4) with the maximum dose being 5000 μg/plate. After a sample to be examined and a strain (TA98 or TA100), or a sample to be examined, S9mix and the strain were mixed together, the mixture was multilayered using soft agar on a medium of a test plate, and then incubated at 37° C. for 48 hours.
(§4) In order to examine gene mutagenicity of Compound 8, reverse mutation test using Salmonella typhimurium TA98 and TA100 (hereinafter referred to as Ames test) was conducted.
(§5) The test was conducted without addition of S9mix and with addition of S9mix. Dimethylsulfoxide was used as a negative control. A positive control was 2-(2-furyl)-3-(5-nitro-2-furyl)acrylamide in case S9mix was not added, and 2-aminoanthracene in case S9mix was added.
as §3, with “Compound 8” for “each sample”, “3)” for “4)”, “Compound 8” for “a sample to be examined”, “Compound 8,” for “a sample to be examined,”

[3] = tested on: Salmonella typhimurium TA100; experiment: Reverse mutation test (Ames test), TA100; type: cell-based; details: maximum 5000 μg/plate
Protocol: as §1, §2, §3, §4, §5
as §3, with “Compound 8” for “each sample”, “3)” for “4)”, “Compound 8” for “a sample to be examined”, “Compound 8,” for “a sample to be examined,”

[4] = tested on: Salmonella typhimurium TA98 and TA100; experiment: Reverse mutation test (Ames test), overall judgment; type: cell-based; details: TA98 and TA100, with and without S9mix
Protocol: as §1, §2, §3, §4, §5
as §3, with “Compound 8” for “each sample”, “3)” for “4)”, “Compound 8” for “a sample to be examined”, “Compound 8,” for “a sample to be examined,”

[5] = molecular target: T2, amyloid (amylin) (Homo sapiens, UniProt P10997); experiment: Inhibition of binding of Thioflavin T to amyloid derived from amylin; details: Thioflavin T 5 μmol/L, amyloid 2.6 μmol/L
T2 construct: Amylin (human) (manufactured by Wako) was dissolved in phosphate buffer (pH 7.4); purchased Wako
T2 sequence (P10997 34-70 limits assumed): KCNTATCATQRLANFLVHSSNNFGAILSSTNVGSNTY
Protocol: Amylin is an amyloid accumulating in pancreas of type II diabetes.
(3) The amyloid suspension was dissolved in 50 mM phosphate buffer (pH 7.4) at a concentration of amylin of 15 μM.
(4) Samples in which each compound for evaluation and amyloid were dissolved in a 50 mM phosphate buffer (pH 7.4) at final concentrations shown in Table 9 were prepared.
(5) A sample in which 100 μL of 50 mM phosphate buffer (pH 7.4) and 50 μL of 50 mM glycin-NaOH buffer (pH 8.5) were mixed was made as a blank, and subjected to the same procedure as in (4) and used for a calculation of inhibition ratio (hereinafter referred to as BG).
(6) The microplate filled with the sample solutions was left to stand at room temperature for 30 hours. Then, fluorescence strength of each sample solution was measured (measurement conditions: excitation wavelength of 446nm, emission wavelength of 490 nm) with microplate reader (type: SPECTRA MAX GEMINI XS, manufactured by Molecular Devices) (hereinafter, A denotes the fluorescence strength in a sample with zero (0) concentration of each compound for evaluation, and B denotes the fluorescence strength in a sample with 1.5 μmol/L or higher concentration of each compound for evaluation).
(7) Using the fluorescence strength measured above in (6), the following formula (5): […]
was used to determine the inhibition ratio.

[6] = Partition coefficient based on the octanol extraction method (logPoctanol); details: octanol / 10 mmol/L phosphate buffer (pH 7.4), radioactivity count
Protocol: 10 μL each of the prepared sample solution was respectively added to 2 mL of octanol, further, 2 mL of 10 mmol/L phosphate buffer (pH 7.4) was added, and stirred for 30 seconds. […] Using the obtained radioactivity count, log Poctanol was calculated in accordance with the equation (2).

[7] = Transferability into brain and clearance (Example I-16, Comparative Example I-7); type: in vivo, male Wistar rats; details: rats, intravenous injection, two animals
Protocol: Using Compound 6, a time course change of radioactive accumulation in brain of male Wistar rats (7-week old) was measured.
Also, radioactivity (hereinafter referred to as B in this Example) of 0.05 mL of a 1000-fold diluted solution of the injected solution was measured in the same manner as above. Using these measurement results, radioactive accumulation per unit weight of brain (% ID/g) at the respective time points was calculated in accordance with the following formula (3).

[8] = Transferability into brain and clearance (Examples II-11, II-12, Comparative Example II-1); details: rats, intravenous injection, three animals
Protocol: Using the Compounds 10 and 11, a time course change of radioactive accumulation in brain of male Wistar rats (7-week old) was measured.
The rats were sacrificed by bleeding from abdominal artery, and brains were removed and subjected to measurement of mass of brains and further subjected to measurement of radioactivity (hereinafter referred to as A in this Example) with a single channel analyzer (detector type: SP-20 manufactured by OHYO KOKEN KOGYO Co., Ltd.) 2, 5, 30 and 60 minutes after the injection. Also, radioactivity (hereinafter referred to as B in this Example) of the rest of the whole body was measured in the same manner as above. Using these measurement results, radioactive accumulation per unit weight of brain (% ID/g) at the respective time points were calculated in accordance with the following formula (4).
Three animals were used for experiment at the respective time points.

[9] = Table 6, 7 dosages (geometric ratio 4)
[10] = up to 5000 μg/plate (geometric ratio 4)
[11] = Table 8, 7 dosages (geometric ratio 3)

T1 sequence (P05067 672-711 limits assumed): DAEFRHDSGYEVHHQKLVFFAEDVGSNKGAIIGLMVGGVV

pIC50 [1]: 8.00
SMILES: Nc1ccc(-c2nc3ccccc3s2)cc1I [3′-I-BTA-0, 2-(3′-Iodo-4′-aminophenyl)benzothiazole, reference compound]

SMILES: Oc1ccc(-c2cn3cc(Br)ccc3n2)cc1 [Compound 1, 6-bromo-2-(4′-hydroxyphenyl)imidazo[1,2-a]pyridine]
pIC50 [1]: 8.36 | Mutagenicity, TA98, with addition of S9mix [2, 9]: Negative | Mutagenicity, TA98, without addition of S9mix [2, 9]: Negative | Mutagenicity, TA100, with addition of S9mix [3, 9]: Negative | Mutagenicity, TA100, without addition of S9mix [3, 9]: Negative | Judgment in the Ames test (gene mutagenicity) [4, 10]: negative | Inhibition ratio (%) of binding of amyloid (amylin) to Thioflavin T ([5]; compound 1.5 μmol/L): 8.7% | Inhibition ratio (%) of binding of amyloid (amylin) to Thioflavin T ([5]; compound 15 μmol/L): 41.3% | Inhibition ratio (%) of binding of amyloid (amylin) to Thioflavin T ([5]; compound 30 μmol/L): 27.0%

SMILES: Oc1ccc(-c2cn3cc(I)ccc3n2)cc1 [Compound 2, 2-(4′-hydroxyphenyl)-6-iodoimidazo[1,2-a]pyridine]
pIC50 [1]: 7.34 | Mutagenicity, TA98, with addition of S9mix [2, 9]: Negative | Mutagenicity, TA98, without addition of S9mix [2, 9]: Negative | Mutagenicity, TA100, with addition of S9mix [3, 9]: Negative | Mutagenicity, TA100, without addition of S9mix [3, 9]: Negative | Judgment in the Ames test (gene mutagenicity) [4, 10]: negative | Inhibition ratio (%) of binding of amyloid (amylin) to Thioflavin T ([5]; compound 1.5 μmol/L): 11.2% | Inhibition ratio (%) of binding of amyloid (amylin) to Thioflavin T ([5]; compound 15 μmol/L): 16.3% | Inhibition ratio (%) of binding of amyloid (amylin) to Thioflavin T ([5]; compound 30 μmol/L): 32.0%

pIC50 [1]: 7.26
SMILES: Oc1ccc(-c2cn3cc(OCCCF)ccc3n2)cc1 [Compound 3, 6-(3′-fluoropropoxy)-2-(4′-hydroxyphenyl)imidazo[1,2-a]pyridine]

SMILES: Oc1ccc(-c2cn3cc(I)cnc3n2)cc1 [Compound 4, 2-(4′-hydroxyphenyl)-6-iodoimidazo[1,2-a]pyrimidine]
pIC50 [1]: 7.27 | Mutagenicity, TA98, with addition of S9mix [2, 9]: Negative | Mutagenicity, TA98, without addition of S9mix [2, 9]: Negative | Mutagenicity, TA100, with addition of S9mix [3, 9]: Negative | Mutagenicity, TA100, without addition of S9mix [3, 9]: Negative | Judgment in the Ames test (gene mutagenicity) [4, 10]: negative

SMILES: Oc1ccc(-c2cn3cc([125I])ccc3n2)cc1 [Compound 5, [^125I]-2-(4′-hydroxyphenyl)-6-iodoimidazo[1,2-a]pyridine]
logPoctanol value [6]: 1.6

pIC50 [1]: 7.60
SMILES: Cc1ccc2nc(-c3ccc(N(C)C)cc3)sc2c1 [Compound 6-Me-BTA-2, 6-methyl-2-[4′-(N,N-dimethylamino)phenyl]benzothiazole, reference compound]

SMILES: Oc1ccc(-c2cn3cc(I)ncc3n2)cc1 [Compound 8, 2-(4′-hydroxyphenyl)-6-iodoimidazo[1,2-a]pyrazine]
Mutagenicity, TA98, with addition of S9mix [2, 11]: Negative | Mutagenicity, TA98, without addition of S9mix [2, 11]: Negative | Mutagenicity, TA100, with addition of S9mix [3, 11]: Negative | Mutagenicity, TA100, without addition of S9mix [3, 11]: Negative | Judgment in the Ames test (gene mutagenicity) ([4]; up to 5000 μg/plate (geometric ratio 3)): negative

logPoctanol value [6]: 1.7
SMILES: Oc1ccc(-c2cn3cc([123I])cnc3n2)cc1 [Compound 9, [^123I]-2-(4′-hydroxyphenyl)-6-iodoimidazo[1,2-a]pyrimidine]

pIC50 [1]: < 6.00
SMILES: Nc1c(/N=N/c2ccc(-c3ccc(/N=N/c4cc(S(=O)(=O)O)c5ccccc5c4N)cc3)cc2)cc(S(=O)(=O)O)c2ccccc12 [Congo-Red, reference compound]

logPoctanol value [6]: 2.1
SMILES: CN(C)c1ccc(-c2cn3cc([125I])ccc3n2)cc1 [[^125I]-IMPY, reference compound]

Radioactive accumulation in brain per unit weight ([7]; after 2 min.): 1.02 % ID/g | Radioactive accumulation in brain per unit weight ([7]; after 5 min.): 0.99 % ID/g | Radioactive accumulation in brain per unit weight ([7]; after 30 min.): 0.20 % ID/g | Radioactive accumulation in brain per unit weight ([7]; after 60 min.): 0.08 % ID/g | Radioactive accumulation in brain per unit weight ([8]; after 2 min.): 1.19 % ID/g | Radioactive accumulation in brain per unit weight ([8]; after 5 min.): 0.97 % ID/g | Radioactive accumulation in brain per unit weight ([8]; after 30 min.): 0.23 % ID/g | Radioactive accumulation in brain per unit weight ([8]; after 60 min.): 0.09 % ID/g
SMILES: CN(C)c1ccc(-c2cn3cc([123I])ccc3n2)cc1 [^123I-IMPY, reference compound]
